Assay results as given in a melting point compilation (Tetko et al.; mined from patent text by program, amines drawn as free bases though some values may be those of a salt).

Compound	melting point [°C]
O=C(NCCCC[C@@H](C(=O)O)n1c2ccccc2c2ccccc21)c1ccc(C(=O)c2ccccc2)cc1	97 to 98
Cc1cc2c(O)nccc2s1	214 to 216
N#Cc1ccc(-c2cc3ccc(C#N)cc3[nH]2)cc1	270 to 275
CNCCc1ccc(-c2ccc(OC(C)C(O)CCc3cccnc3)cc2)cc1 (stereo not drawn)	113 to 114
N#Cc1cc([N+](=O)[O-])ccc1Oc1ccc(Cl)cc1	163 to 164
Cc1nc(-c2cccnc2)sc1-c1ccnc(Nc2ccc(N3CCOCC3)c(Cl)c2)n1	230 to 231
O=C(NNC(=O)c1occ(-c2ccccc2)c1-c1ccccc1)c1ccsc1	195 to 197
COc1ccc2c(c1)Sc1ccccc1CN2C=O	98 to 100
COC(=O)C[C@H](O)C[C@H](O)C=Cc1c(-c2ccc(F)cc2)c(-c2ccc(F)cc2)c(C(=O)Nc2ccc(S(N)(=O)=O)cc2)n1C(C)C	208 to 210
O=c1oc(-c2ccc(F)cc2)nc2cccc(Cl)c12	159 to 162
Cn1cc(SC(F)(F)F)c(=O)c(-c2cccc(C(F)(F)F)c2)c1	122 to 124
COC(=O)C1CC(=O)C(N=Nc2ccccc2)=C(O)C1 (stereo not drawn)	117 to 118
ICc1ccc2c(c1)OCO2	51
CS(=O)(=O)OC1CCc2c(sc(N)c2C(=O)c2ccc(Cl)cc2)C1 (stereo not drawn)	73 to 75
Cn1cc(C(=O)c2ccc3ccccc3c2)cc1C(=O)c1cccnc1	132 to 133
CC12CCC(O)CC1=CCC1C2C(O)CC2(C)C1CCC21OCCO1 (stereo not drawn)	123 to 125
COC(=O)C(Oc1nc(C)cc(OC)n1)C(OCC(C)(C)C(=O)OC)(c1ccccc1)c1ccccc1 (stereo not drawn)	143
Cc1nc2cnccc2n1-c1ccc(C2=Cc3nccn3-c3cc(Cl)c(Cl)cc3N2C)cc1	268 to 270
COc1cccc(NC(=O)C(N)=S)c1	135
Nc1nnc(-c2cc(Cl)cc(Cl)c2O)s1	268
O=C(OCC1c2ccccc2-c2ccccc21)N1Cc2cccn2Cc2ccccc21	141 to 142

Compound	melting point [°C]
CN(C)C(=O)NCCCCC1CCSS1 (stereo not drawn)	52 to 53
Cc1n[nH]c2c1CCc1[nH]ncc1-2	250 to 252
COc1ccc2c(n1)c(CCNC(=O)c1ccco1)c1n2CCCc2ccccc2-1	70 to 71
CCCC(CCNC(=O)CC#N)NC(=O)CC#N (stereo not drawn)	141
CC(Oc1cccnc1)C(=O)Nc1ccc(C(=O)Nc2ccccc2N)cc1 (stereo not drawn)	193 to 196
OCC#CC1=Cc2ccccc2Sc2ccc(Cl)cc21	111 to 113
CNc1nc(-c2ccco2)c2ncn(Cc3ccc(OC)cc3)c2n1	144 to 145
O=C(O)c1ccc(NCCCCOc2ccccc2)cc1	153 to 155
COc1ccc2c(c1)CCN(C(C)=O)CC2	89 to 90
CC#CCOc1ccc(SC(C(=O)NO)c2ccc3ccccc3c2)cc1 (stereo not drawn)	148
Cc1ccccc1NC(=O)NC1N=C(c2ccccc2F)c2ccccc2N(CC(=O)N2CC3CCC(CC3)C2)C1=O (racemic)	167 to 172
N#CC(Cl)CC(Cl)(Cl)C(=O)Oc1ccccc1 (stereo not drawn)	51.5 to 52.5
N#Cc1ccc(N2CCC(N3CCCC3)CC2)cc1	88 to 89
O=C(Nc1ccnnc1)NC1CCCCCC1	226 to 228
C=C(C)C(=O)Oc1ccc(S(=O)(=O)N(C(=O)OC(C)(C)C)c2ccccc2)cc1	112 to 114
CCCCN(CCCC)Cc1nnc(-c2ncn3c2CN(C)C(=O)c2c(Cl)cccc2-3)o1	105 to 108
CN1CCC(C2Oc3cc(F)ccc3Cn3cccc32)CC1 (stereo not drawn)	115 to 120
CCN(CC)c1ccc(C(=O)C#Cc2ccncn2)cc1	180 to 182
COC1(c2cc(F)cc(OCc3ccc(-n4ccnc4C)cc3)c2)CCOCC1	168
Nc1ccc(C2=NC(O)C(=O)Nc3ccc(Cl)cc32)cc1 (stereo not drawn)	> 350
Cc1cc(C[C@@H](NC(=O)c2cccc3c2C=CCCC3)[C@@H](O)c2ccc(F)cc2)cc(OC(F)(F)C(F)F)c1 (racemic)	175 to 176

Compound	melting point [°C]
CNC(=S)C1(c2cccc(C)n2)CCCS1 (stereo not drawn)	121
O=C1NCN(c2ccccc2)C12CCN(CCCOc1ccc(F)cc1Cl)CC2	154 to 155
Cc1nc2ccc(CN(CCO)c3ccc(C(=O)NCc4cccc(C#N)c4)cc3)cc2c(=O)[nH]1	110 to 112
O=C(c1nc(-c2ccccc2)nc2ccccc12)N1CCCCC1	160
COC(=O)CCc1conc1-c1ccc(F)c(Cl)c1	39 to 40
Nc1nccc(Oc2ccc3c(C(=O)Nc4ccc(F)c(C(F)(F)F)c4)cccc3c2)n1	205
Cn1nc(-c2ccc(F)cc2)c(-c2ccncc2)c1C(O)CCc1ccccc1 (stereo not drawn)	62 to 65
NNC(=O)c1cc2ccncc2c2sc3ccccc3c12	285 to 289
CN1CCC(Oc2ccc3ccccc3n2)(c2ccccc2)CC1	80 to 81
Cc1c(S(=O)(=O)Nc2ccc(-c3nc(C(=O)O)cs3)cc2S(C)(=O)=O)sc2ccc(F)cc12	257 to 258
O=C(Cc1ccn(-c2ccc(F)cc2)c1)N1C(=O)OC[C@@H]1Cc1ccccc1	106 to 108
Fc1ccc(Nc2ccccc2C=C(Br)Br)cc1	75 to 77
N#CC=C(c1ccc(-c2ccccc2)cc1)c1ccc(-c2ccccc2)cc1	154
COc1ccc2c(C(=O)O)cn(C(C)C)c2c1	162 to 163
Cc1ccc(-c2ccccc2C2=NC(C)(C)CO2)cc1	56 to 59
O=C(c1sccc1-n1cccc1)N1CCOCC1	100
N#Cc1cnc2c(sc3ccccc32)c1Nc1ccc(Cl)cc1F	250 to 251
CC(=O)Nc1ccc(OCC2CCCC(OC(CCn3ccnc3)c3ccc(F)cc3)O2)cc1 (stereo not drawn)	133 to 135
CN1C(=O)[C@H](NC(=O)CNc2ccc(C(F)(F)F)cc2)N=C(c2ccccc2)c2ccccc21	218 to 219

Second part, the molecule after the results:

melting point [°C]	Compound
142	COc1cc(O)c(C(=O)C=Cc2ccc(OC(C)=O)cc2)c(OC)c1
103 to 104	CCOC(=O)C1(C(C)C)OC2(O)C3CCCN3C(=O)C(C(C)C)N2C1=O (stereo not drawn)
110 to 113	COc1ccc(C(=O)c2cccc([N+](=O)[O-])c2C)cc1
65 to 69	CCOC(=O)c1cccnc1Oc1cncc(Cl)c1
65 to 70	CCN1CC(=O)N(C)c2cc(Nc3ncc(Cl)c(Nc4ccc(OC)c(CNCCO)c4)n3)c(OC)cc2C1
180 to 181	COC(=O)c1ccc2c(=O)n(CC(C)C)c(CNC(=O)OC(C)(C)C)c(-c3ccccc3F)c2c1
90 to 91	COc1cc2c(cc1OC)C(COCCCl)OCCC2 (stereo not drawn)
110 to 113	CCCCN(C(=O)CCC(=O)O)C1CC(C)(C)N(OC2CCCCC2)C(C)(C)C1
156 to 157	Cc1cc(C)c2c(c1)N[C@@H](C(=O)O)[C@@H](C)C2=O (relative stereo)
58	COC(CCOS(=O)(=O)c1ccc(C)cc1)CCOS(=O)(=O)c1ccc(C)cc1
82 to 83	CCOC(=O)C(NC(C)=O)(C(=O)OCC)c1ccc([N+](=O)[O-])cn1
147 to 148	CCOC(=O)CN(C)C(=O)c1ccn2c1CNc1ccccc1C2
264 to 265	Cc1cc2c(cc1C)Sc1cscc1C(=O)N2
65 to 67	NS(=O)(=O)c1ccc(CCCCCO)s1
> 250	Cc1ccc(-c2ccc(Cl)cc2)cc1-c1c(O)cnn(C)c1=O
190	CCOC(=O)c1cn(C)c2nc3cc(N4CCNC(Cc5ccccc5)C4)c(F)cc3cc2c1=O (racemic)
79 to 81	CCOC(=O)c1cc(=O)c(Sc2ccccc2)co1
205	Cn1cc(C=O)c(=O)c2cc(C(F)(F)F)ccc21
180 to 181	CC(C)S(=O)(=O)n1c(N)nc2ccc(C(=CCl)c3ccccc3)cc21
203 to 207	Nc1ccc([N+](=O)[O-])c(NC(=O)c2ccccc2)c1
121 to 122	COc1ccc(C(=O)COC(=O)NC(C)C)cc1

melting point [°C]	Compound
74 to 75	CCCCn1c(C)c(N)c(=O)n(C)c1=O
249 to 251	Cn1c(-c2ccncc2)n[nH]c1=O
218 to 219	COc1ccc(Cn2c(=O)c3c(c4ccccc42)OC(C)(C)[C@@H](O)[C@@H]3NC(=O)CCCCl)cc1 (relative stereo)
135 to 137	Cc1ccccc1-n1ccc2c(NCCCO)nc3c(C)cccc3c21
195 to 196	CC(=O)Nc1ccc2c(c1)SC1(CC1)C2=O
166 to 169	CCCCCOC(=O)n1c(N)nc(C#N)c1C#N
95 to 97	CCN[C@H]1CCC[C@H](Oc2ccc3[nH]ncc3c2C)C1 (relative stereo)
240 to 245	CCCCCCCCCCCCCCCC(=O)NCCCC[C@H](N)C(=O)O
73 to 74	CCOc1nccc(Cl)c1NC(=O)OC(C)(C)C
158 to 161	O=C(O)CCCCc1ccn2cncc2c1
36 to 37	C=C(Cl)COc1cc(C)nc(NCCCCCC)n1
135 to 138	CC1=C(C)C(=O)N(OC(=S)N(C)C)C1=O
113 to 115	CN(C)CCOC(=O)c1cc2cccc(OCc3ccccc3)c2[nH]1
190 to 191	CCCCNc1cc(CNC(C)=O)cc(S(N)(=O)=O)c1Oc1ccccc1
118 to 119	CC[C@H]1Oc2ccccc2C(=O)N2CCC[C@@H]12
232 to 234	CN(C)CCn1c(=O)c(=NO)nc(-c2ccccc2)c2ccccc21
138 to 140	Cc1ccc2c(c1)C(=O)N(CCN1CCC(c3noc4cc(F)ccc34)CC1)C2=O
134 to 135	CC(=O)NCCC1CCc2ccn3nc(C)c(C)c3c21 (stereo not drawn)
152	CN1CCC(=C2c3sccc3C=Cn3ccnc32)CC1
78 to 80	CCSC(C)C(=O)N(CC)c1c[nH]nc1Cl (stereo not drawn)
125 to 129	COc1ccc(Br)c(Sc2nc3c(N)nccc3n2CCCNC(C)C)c1
